According to paper PMC4389225, “Triaminopyrimidine is a fast-killing and long-acting antimalarial clinical candidate” (Nature Communications, 2015):

Assays:
[1] = tested on: Pf3D7^0087/N9; experiment: animal or person; format: in vivo, Plasmodium falciparum
Source text: All animal studies were ethically reviewed and carried out in accordance with European Directive 86/609/EEC and the GSK Policy on the Care, Welfare and Treatment of Animals. During this experiment, female mice were used from the batch NSGJ 01/1 (The Jackson Laboratory, USA). The therapeutic efficacy of compound 12 against Pf3D7^0087/N9 was studied using a ‘4-day test’ reported earlier. Briefly, NODscidIL2Rγ^null mice engrafted with human erythrocytes were infected with 20 × 10^6 Pf-infected erythrocytes. Infections were performed by i.v. inoculation. All mice were randomly assigned to their corresponding treatment. The treatment started at day 3 and finished at day 6 after infection. The compound was administered orally as a suspension in 0.5% w/v hydroxypropyl methylcellulose (HPMC) with 0.1% v/v Tween 80, using an oral gavage at a maximum dose volume of 20 ml kg^−1. Vehicle alone was administered in untreated mice. In all cases, parasitemia was assessed in samples from peripheral blood obtained at days 3–7 after infection. A qualitative analysis of the effect of treatment on Pf3D7^0087/N9 was assessed by microscopy and flow cytometry. Fresh samples of peripheral blood from Pf-infected mice were stained with TER-119-Phycoerythrine (marker of murine erythrocytes) and SYTO-16 (nucleic acid dye) and then analysed by flow cytometry (FACS Calibur, BD). Microscopy analysis was performed with Giemsa-stained blood smears from samples taken at days 5 and 7 (48 and 96 h after starting treatment, respectively).
PK-PD model for the metabolite (compound 9) alone. Pharmacokinetic data from the Pf/SCID model was linked to efficacy using the following equation5.
Where P [log (total no. of parasites / mouse)], Kgro (growth rate constant), Pmax (log (maximum no. of parasites / mouse)), Kkill (maximum kill rate constant), H (Hill slope), EC50 (concentration required for achieving half maximal kill rate) and Ce (concentration of the drug in the effect compartment). Percent parasitemia values were converted into total number of parasites in mouse blood assuming […] (9.23 log10) RBCs per mouse. The lower limit of quantitation for % parasitemia was 0.01% or 5.23 log10. Effect compartment was used for modelling the delay observed in efficacy at a lower dose. […]

[2] = tested on: Dd2; experiment: SYBR green growth assay, Dd2 (parental); format: cell-based, P. falciparum; conditions: Plasmodium falciparum, DD2, Dd2 parental; mean ± SD, Supplementary Table 13
Protocol: To eliminate overlapping mode of action with known targets, cross-resistance testing of representative TAPs against drug-resistant lines with well-characterized mutations in Pf dihydroorotate dehydrogenase, Pf heat-shock protein 90, Pf chloroquine resistance transporter[25] or Pf cytochrome b reduction site[26] was performed. […] Assays were carried out in 384-well format with three technical replicates within an assay day and biological replicates carried out on three different assay days to assign a final EC50.
A representative TAP (compound 6) was tested for its activity against a panel of P. falciparum strains known to harbour mutations conferring resistance to antimalarial agents under development. Artesunate and amodiaquine were included as additional control […]
Values are the means ± standard deviation derived from three independent assays performed

[3] = tested on: Dd2 PI4K Cpd 1; experiment: [3H]-hypoxanthine incorporation assay, Dd2 PI4K Cpd 1 resistant; format: cell-based; conditions: Plasmodium falciparum
Protocol: Supplementary Table 3: Compound 9 and 12 retain their activity against Pf strains harbouring mutations to novel antimalarial agents in clinical development. Compound 9 and 12 were tested for their antiplasmodial activity against a panel of Pf strains known to harbour mutations conferring resistance to novel agents under clinical development. Parasite growth inhibition is measured using the [3H]-hypoxanthine incorporation assay. IC50s are established for each strain (n ≥2) and compared to the IC50 of Dd2 (standard pan-resistant […]

[4] = Hepatocyte Clint, rat; format: in vitro ADME; conditions: for Predicted blood CL: Rat
Source text: (§1) Supplementary Note 5: Prediction of human clearance for compound 12 by IVIVE.
(§2) Human clearance (CL) was predicted by in vitro-in vivo extrapolation (IVIVE) from the in vitro Clint in human hepatocytes6. In vitro Clint was scaled to in vivo Clint as follows:
(§3) Clint in vivo = Clint in vitro * scaling factors * fublood/fuinc
(§4) The liver weights used for scaling were 40, 32 and 24 g/kg body weight in rat, dog and human respectively. Hepatocellularity used for scaling was 163, 169 and 120 (X 106) cells/g liver in rat, dog and human respectively. Free fraction in blood was calculated as fuplasma /Blood:Plasma (BP) ratio. BP ratio and free fraction in the hepatocyte incubation mix, fuinc, were measured in vitro. Slope and intercept from the linear regression analysis of IVIVC for a large number of AstraZeneca compounds was applied for final correction in the scaled in vivo Clint. A well stirred model was used for CL prediction.
(§5) Where Qh is the liver blood flow. The values of Qh in rat, dog and human are 72, 55 and 20 mL.min-1kg-1 in rat, dog and human, respectively. In vitro parameters, observed in vivo CL and predicted CL are shown in supplementary Table 10. […]
(§6) (also on this page, place not known: in vivo in vivo CLintQ CLintQCL Predicted predicted predicted h h + ×=)
(§7) (1 picture or pasted object on this page, not shown here)

[5] = Blood-plasma ratio, mouse; format: in vitro ADME
[6] = Blood-plasma ratio, rat; format: in vitro ADME
Source text: as §1, §2, §3, §4, §5, §6, §7

[7] = Plasma protein binding, dog
[8] = tested on: Pf male and female gametes; experiment: Pf male and female dual gamete assay; conditions: Plasmodium falciparum, read-out: inhibition in Pf male and female dual gamete assay
[9] = tested on: Dd2-6R F2 D8; experiment: SYBR green growth assay, Dd2-6R F2 D8; conditions: Plasmodium falciparum

In the case of `Cc1nc(Nc2ncc(N3CCN(C)[C@H](C)C3)c(Nc3cc(C)n(C)n3)n2)cc(C2CC2)c1F` [compound 12, (R)-N2-(4-cyclopropyl-5-fluoro-6-methylpyridin-2-yl)-N4-(1,5-dimethyl-1H-pyrazol-3-yl)-5-(3,4-dimethylpiperazin-1-yl)pyrimidine-2,4-diamine], the “clearance of Pf parasites” value ([1]; 4 days of daily treatment, 20 mg kg^−1, oral) is reported as “below detection limit”, the EC50 ([1]; Plasmodium falciparum, in Mus musculus) is reported as 38 nM and the ED99 ([1]; mouse model of Pf malaria) is reported as < 30 mg/kg. For the same molecule, the “dose at which maximum kill rate was observed” value ([1]; oral, 4-day test) was 40 mg/kg, the Kkill ([1]; parent, model predicted estimate) was 0.097 h⁻¹ and the IC50 [2] was 16.1 ± 1 nM. The IC50 [3] was 7.1 nM, the “Predicted blood CL” value [4] was 26 % LBF and the “Predicted blood CL” value ([4]; IVIVC from hepatocyte Clint) was 18.8 mL/min/kg. For the same molecule, the hepatocyte CLint ([4]; rat, hepatocytes) was 11.3 µL/min/1e6 cells, the “B:P ratio” value [5] was 1.2 and the “B:P ratio” value [6] was 1.65. The “Plasma protein binding (% free)” value ([7]; Dog) was 3.8 % free, the fraction unbound ([7]; dog, plasma) was 0.038 and the inhibition at 1 µM [8] was 16.5 ± 6.3%. For the same molecule, the IC50 [9] was 69.6 nM.
